Columns and labels:
male rabbits = details: four male rabbits, skin sealed 24 hrs, highest tested dose 20 ml/kg, observed over a fortnight
Experimental: Topical administration. The penetration of rabbit skin was tested with a cuff model. The hair on the back of four male rabbits weighing from 2.5 to 3.5 kg was removed by shaving, the diol applied to the skin with a pipette, and the skin sealed with polyethylene film for 24 hrs. During the test period the animals were immobilised. After the exposure the animals were observed over a fortnight period.

[1] = test system: coagulation-negative staphylococci; assay: MIC by standard blood agar dilution technique
Text: (§1) The following bacteria were investigated: methicillin-resistant Staphylococcus aureus (MSRA), fucidic acid-resistant S. aureus, non-resistant S. pyogenes, coagulation-negative staphylococci (for resistance, see Table 1 below) vancomycin-resistant enterococci (Enterococcus CCUG van A and van B), non-resistant Escherichia coli, Acinetobacter resistant against cefadroxil, nitrofurantin, mecillinam, Serratia maltophilia resistant against most types of antibiotics, Enterobacter (for resistance, see Table 1 below; additionally resistant against cefadroxil and nitrofurantin), non-resistant α-streptococci, non-resistant Streptococcus Group G, Pseudomonas aeruginosa (for resistance, see Table 2 below). Inocula of 10^3 and 10^5 bacteria were used.

Acinetobacter = assay: MIC by standard blood agar dilution technique; details: inoculate size 10^3
Text: as §1

Alphastreptococci = assay: MIC by standard blood agar dilution technique; details: inoculate size 10^3
Text: as §1

Escherichia coli = assay: MIC by standard blood agar dilution technique
Text: as §1

Streptococcus group C = assay: MIC by standard blood agar dilution technique; details: inoculate size 10^3
Text: as §1

Pseudomonas aeruginosa = assay: MIC by standard blood agar dilution technique
Text: as §1

Enterococcus = assay: MIC by standard blood agar dilution technique; details: MR fuc +, van −
Text: as §1

OCCCCCO [pentane-1,5-diol]
the animals survived: survival after topical administration (male rabbits)
10.9 % by weight: MIC (% by weight of pentane-1,5-diol) (Enterococcus; Enterococcus 921 × 57057, inoculate size 10^5, tri −)
15.0 % by weight: MIC (% by weight of pentane-1,5-diol) ([1]; Coag.neg.staph. 900 × 5515, inoculate size 10^5, MR fuc +) | MIC (% by weight of pentane-1,5-diol) ([1]; Coag.neg.staph. 916 × 8188, inoculate size 10^3, MR fuc −)
17.5 % by weight: MIC (% by weight of pentane-1,5-diol) ([1]; Coag.neg.staph. 904 × 2816, inoculate size 10^5, MR fuc +) | MIC (% by weight of pentane-1,5-diol) ([1]; Coag.neg.staph. 916 × 8188, inoculate size 10^5, MR fuc −)
10.0 % by weight: MIC (% by weight of pentane-1,5-diol) ([1]; Coag.neg.staph. 900 × 5539, inoculate size 10^5, MR fuc −) | MIC (% by weight of pentane-1,5-diol) ([1]; Coag.neg.staph. 902 × 14176 small, inoculate size 10^5, MR fuc +) | MIC (% by weight of pentane-1,5-diol) ([1]; Coag.neg.staph. 904 × 2816, inoculate size 10^3, MR fuc +) | MIC (% by weight of pentane-1,5-diol) (Escherichia coli; E. coli 921 × 57387, inoculate size 10^5, MR tri +) | MIC (% by weight of pentane-1,5-diol) (Escherichia coli; E. coli 921 × 57388, inoculate size 10^5) | MIC (% by weight of pentane-1,5-diol) (Escherichia coli; E. coli 921 × 57389, inoculate size 10^5) | MIC (% by weight of pentane-1,5-diol) (Escherichia coli; E. coli 921 × 57397, inoculate size 10^5) | MIC (% by weight of pentane-1,5-diol) (Escherichia coli; E. coli 921 × 57418, inoculate size 10^5) | MIC (% by weight of pentane-1,5-diol) (Streptococcus group C; Streptococcus group C 912 × 1114) | MIC (% by weight of pentane-1,5-diol) (Streptococcus group C; Streptococcus group C 912 × 1185) | MIC (% by weight of pentane-1,5-diol) (Pseudomonas aeruginosa; P. aeruginosa 921 × 57855, inoculate size 10^5, MR van +, tri −) | MIC (% by weight of pentane-1,5-diol) (Enterococcus; Enterococcus 921 × 57002, inoculate size 10^5, tri −)
12.5 % by weight: MIC (% by weight of pentane-1,5-diol) ([1]; Coag.neg.staph. 900 × 5515, inoculate size 10^3, MR fuc +) | MIC (% by weight of pentane-1,5-diol) ([1]; Coag.neg.staph. 900 × 5516, inoculate size 10^5, MR fuc −) | MIC (% by weight of pentane-1,5-diol) ([1]; Coag.neg.staph. 900 × 5538, inoculate size 10^5, MR fuc −) | MIC (% by weight of pentane-1,5-diol) ([1]; Coag.neg.staph. 916 × 8132, inoculate size 10^5, MR fuc −)
5.0 % by weight: MIC (% by weight of pentane-1,5-diol) ([1]; Coag.neg.staph. 900 × 5538, inoculate size 10^3, MR fuc −) | MIC (% by weight of pentane-1,5-diol) (Acinetobacter; Acinetobacter 116 × 305) | MIC (% by weight of pentane-1,5-diol) (Acinetobacter; Acinetobacter 117 × 217) | MIC (% by weight of pentane-1,5-diol) (Acinetobacter; Acinetobacter 514 × 1224) | MIC (% by weight of pentane-1,5-diol) (Acinetobacter; Acinetobacter 921 × 16968) | MIC (% by weight of pentane-1,5-diol) (Alphastreptococci; Alphastreptococci 912 × 1137) | MIC (% by weight of pentane-1,5-diol) (Alphastreptococci; Alphastreptococci 912 × 1138) | MIC (% by weight of pentane-1,5-diol) (Escherichia coli; E. coli 921 × 57387, inoculate size 10^3, MR tri +) | MIC (% by weight of pentane-1,5-diol) (Escherichia coli; E. coli 921 × 57388, inoculate size 10^3) | MIC (% by weight of pentane-1,5-diol) (Escherichia coli; E. coli 921 × 57389, inoculate size 10^3) | MIC (% by weight of pentane-1,5-diol) (Escherichia coli; E. coli 921 × 57397, inoculate size 10^3) | MIC (% by weight of pentane-1,5-diol) (Escherichia coli; E. coli 921 × 57418, inoculate size 10^3) | MIC (% by weight of pentane-1,5-diol) (Pseudomonas aeruginosa; P. aeruginosa 921 × 17701, inoculate size 10^3, MR cip +, tri +) | MIC (% by weight of pentane-1,5-diol) (Pseudomonas aeruginosa; P. aeruginosa 921 × 17748, inoculate size 10^3, MR cip −, tri +) | MIC (% by weight of pentane-1,5-diol) (Pseudomonas aeruginosa; P. aeruginosa 921 × 17756, inoculate size 10^3, MR cip +, tri +) | MIC (% by weight of pentane-1,5-diol) (Pseudomonas aeruginosa; P. aeruginosa CCUG 17619, inoculate size 10^3) | MIC (% by weight of pentane-1,5-diol) (Pseudomonas aeruginosa; P. aeruginosa CCUG 17619, inoculate size 10^5) | MIC (% by weight of pentane-1,5-diol) (Enterococcus; Enterococcus 921 × 57022, inoculate size 10^3, cip +, tri +)
2.5 % by weight: MIC (% by weight of pentane-1,5-diol) (Acinetobacter; Acinetobacter 516 × 748) | MIC (% by weight of pentane-1,5-diol) (Acinetobacter; Acinetobacter 921 × 113359)
7.5 % by weight: MIC (% by weight of pentane-1,5-diol) ([1]; Coag.neg.staph. 900 × 5516, inoculate size 10^3, MR fuc −) | MIC (% by weight of pentane-1,5-diol) ([1]; Coag.neg.staph. 900 × 5525, inoculate size 10^5, MR fuc −) | MIC (% by weight of pentane-1,5-diol) ([1]; Coag.neg.staph. 900 × 5539, inoculate size 10^3, MR fuc −) | MIC (% by weight of pentane-1,5-diol) ([1]; Coag.neg.staph. 902 × 14176 large, inoculate size 10^3, MR fuc −) | MIC (% by weight of pentane-1,5-diol) ([1]; Coag.neg.staph. 902 × 14176 small, inoculate size 10^3, MR fuc +) | MIC (% by weight of pentane-1,5-diol) ([1]; Coag.neg.staph. 916 × 8132, inoculate size 10^3, MR fuc −) | MIC (% by weight of pentane-1,5-diol) (Alphastreptococci; Alphastreptococci 912 × 1135) | MIC (% by weight of pentane-1,5-diol) (Alphastreptococci; Alphastreptococci 912 × 1139) | MIC (% by weight of pentane-1,5-diol) (Alphastreptococci; Alphastreptococci 912 × 1200) | MIC (% by weight of pentane-1,5-diol) (Streptococcus group C; Streptococcus group C 900 × 1618) | MIC (% by weight of pentane-1,5-diol) (Enterococcus; Enterococcus 921 × 57002, inoculate size 10^3, tri −) | MIC (% by weight of pentane-1,5-diol) (Enterococcus; Enterococcus 921 × 57022, inoculate size 10^5, cip +, tri +) | MIC (% by weight of pentane-1,5-diol) (Enterococcus; Enterococcus 921 × 57057, inoculate size 10^3, tri −)
20.0 % by weight: MIC (% by weight of pentane-1,5-diol) ([1]; Coag.neg.staph. 902 × 14176 large, inoculate size 10^5, MR fuc −)

— patent US7973080B2 (Ambria Dermatology AB, priority 2003, dated 2011)
